Assay results from patent US8664289B2, “Dye and coloring photosensitive composition” (Adeka Corporation, priority 2010, dated 2014).

Tests used:
Format in all cases: physicochemical
[1] = Evaluation of heat resistance by TG-DTA; conditions: temperature at 10% weight loss
Description: Compounds Nos. 1 to 7, 16, 26, 43, 52 to 62, 65, 66, 69, 70 and 94 to 102 and Comparative Compounds Nos. 1 and 2 obtained above were analyzed by TG-DTA, and the melting points and temperatures at 10% weight loss were measured. The results are shown in [Table 6].

[2] = Evaluation of absorption wavelength property in CHCl3 solution; design: ε: unit not given here; conditions: for ε: molar absorption coefficient
Source text: The absorption wavelength properties of Compounds Nos. 1 to 7, 16, 26, 43, 52 to 62, 65, 66, 69, 70 and 94 to 102 and Comparative Compounds Nos. 1 and 2 obtained above were each evaluated in a CHCl3 solution. The results are shown in [Table 5].

[3] = Heat resistance of exposed coating film of coloring alkali-developable photosensitive composition; conditions: for Relative intensity After exposure: coating film after exposure (150 mJ/cm^2), before heating; for λmax: coating film of composition containing the compound, on glass; for Relative intensity 230° C., 30 min: exposed coating film after 230° C.
Source text: 30.33 g of ACA Z250 (manufactured by Daicel Cytec Company Ltd.) and 11.04 g of ARONIX M-450 (manufactured by Toagosei Co., Ltd.) as the component (B), 1.93 g of IRGACURE 907 (manufactured by BASF) as the component (C), 36.60 g of PGMEA and 20.08 g of cyclohexanone as the component (E), as well as 0.01 g of FZ2122 (manufactured by Dow Corning Toray Co., Ltd.) as other component were mixed and stirred until insoluble components were diminished to give Alkali-developable photosensitive composition No. 1.
1.90 g of dimethylacetamide was added to 0.10 g of Compound No. 1 obtained above as the component (A) and dissolved under stirring.
5.0 g of Alkali-developable photosensitive composition No. 1 obtained in Step 1 and 1.0 g of Dye liquid No. 1 obtained in Step 2 were mixed and stirred to homogeneous to give Coloring alkali-developable photosensitive composition No. 1 of the present invention.
Coloring alkali-developable photosensitive compositions Nos. 2 to 20 were obtained in a similar manner to that in Example 2-1, except that Compound No. 1 as the component (A) in Step 2 of Example 2-1 was changed to Compound No. 2, 3, 5, 6, 16, 53, 56, 57, 59, 60, 65, 66, 94 or 96 to 101 obtained above.
Comparative coloring alkali-developable photosensitive compositions Nos. 1 and 2 were obtained in a similar manner to that in Example 2-1, except that Compound No. 1 as the component (A) in Step 2 of Example 2-1 was changed to Comparative Compound No. 1 or 2.
The coloring alkali-developable photosensitive compositions obtained in Example 2 were each applied to a glass basal plate under a condition of 410 rpm×7 sec and dried (90° C., 90 sec) on a hot plate. The obtained coating film was exposed (150 mJ/cm^2) by using an ultrahigh pressure mercury lamp. The heat resistance of the exposed coating film was investigated under conditions of 180° C.×60 min and 230° C.×30 min. The results are shown in [Table 7].
Using the coloring alkali-developable photosensitive compositions obtained in Examples 2-2 to 2-20 and Comparative Examples 2-1 and 2-2, heat resistance was investigated in a similar manner to that in Evaluation Example 3. The results are shown in [Table 7].

Solubility in PGMEA = conditions: concentration when PGMEA was added dropwise to 0.1 g of the compound under stirring and was dissolved completely
Description: (§1) That the obtained solid was an intended product was confirmed by ^1H-NMR and IR. Furthermore, the solubility of the obtained compound was measured. The solubility was a concentration when PGMEA was added dropwise to 0.1 g of the compound under stirring and was dissolved completely. The results thereof are shown in [Table 1] to [Table 4].
as §1, with “added” for “added dropwise”, “while” for “under”, “4]” for “4].”

`CCOC(=O)/C(C#N)=C/c1ccc(N(CC)CC)cc1` [Comparative Compound No. 1, reference compound] showed a 10% weight loss [1] of 259 °C, a λmax [2] of 430 nm and a ε [2] of 54900.

For `CCOCCOC(=O)/C(C#N)=C/c1ccc(N(CC)CC)cc1` [Comparative Compound No. 2, reference compound], the “Relative intensity After exposure” value [3] was 100, the λmax [3] was 433 nm and the “Relative intensity 230° C., 30 min” value [3] was 24.0.

`CCOCCOC(=O)C(C#N)=C(C)c1ccc(N(CC)CC)cc1` [Comparative Compound No. 2, reference compound] showed a 10% weight loss [1] of 252 °C, a λmax [2] of 432 nm and a ε [2] of 57200.

For `CCN(CC)c1ccc(/C=C(\C#N)C(=O)OCCOC(=O)/C(C#N)=C/c2ccc(N(CC)CC)cc2)cc1` [Compound No. 1], the 10% weight loss [1] was 318 °C, the “Solubility (PGMEA)” value (Solubility in PGMEA) was 0.5 wt % and the λmax [2] was 436 nm. For the same compound, the ε [2] was 107000, the “Relative intensity After exposure” value [3] was 100 and the λmax [3] was 418 nm. For the same compound, the “Relative intensity 230° C., 30 min” value [3] was 99.4.

For `CCN(CC)c1ccc(/C=C(\C#N)C(=O)OCC(C)OC(=O)/C(C#N)=C/c2ccc(N(CC)CC)cc2)cc1` (centres unmarked) [Compound No. 2], the 10% weight loss [1] was 312 °C, the “Solubility (PGMEA)” value (Solubility in PGMEA) was 4.0 wt % and the λmax [2] was 434 nm. For the same compound, the ε [2] was 100000, the “Relative intensity After exposure” value [3] was 100 and the λmax [3] was 430 nm. The “Relative intensity 230° C., 30 min” value [3] was 99.3.

In the case of `CCN(CC)c1ccc(/C=C(\C#N)C(=O)OCCCOC(=O)/C(C#N)=C/c2ccc(N(CC)CC)cc2)cc1` [Compound No. 3], the 10% weight loss [1] is reported as 329 °C, the “Solubility (PGMEA)” value (Solubility in PGMEA) is reported as 0.4 wt % and the λmax [2] is reported as 435 nm. For the same compound, the ε [2] was 104000, the “Relative intensity After exposure” value [3] was 100 and the λmax [3] was 433 nm. The “Relative intensity 230° C., 30 min” value [3] was 99.4.

In the case of `CCN(CC)c1ccc(/C=C(\C#N)C(=O)OCCCCCOC(=O)/C(C#N)=C/c2ccc(N(CC)CC)cc2)cc1` [Compound No. 4], the 10% weight loss [1] is reported as 335 °C, the “Solubility (PGMEA)” value (Solubility in PGMEA) is reported as 0.6 wt % and the λmax [2] is reported as 431 nm. The ε [2] was 110000.

With `CCN(CC)c1ccc(/C=C(\C#N)C(=O)OCCCCCCCOC(=O)/C(C#N)=C/c2ccc(N(CC)CC)cc2)cc1` [Compound No. 5] the 10% weight loss [1] was 348 °C, the “Solubility (PGMEA)” value (Solubility in PGMEA) was 2.0 wt % and the λmax [2] was 430 nm. For the same compound, the ε [2] was 110000, the “Relative intensity After exposure” value [3] was 100 and the λmax [3] was 431 nm. The “Relative intensity 230° C., 30 min” value [3] was 99.5.

In the case of `CCN(CC)c1ccc(/C=C(\C#N)C(=O)Oc2ccc(C(C)(C)c3ccc(OC(=O)/C(C#N)=C/c4ccc(N(CC)CC)cc4)cc3)cc2)cc1` [Compound No. 6], the 10% weight loss [1] is reported as 322 °C, the “Solubility (PGMEA)” value (Solubility in PGMEA) is reported as 0.9 wt % and the λmax [2] is reported as 440 nm. For the same compound, the ε [2] was 132000, the “Relative intensity After exposure” value [3] was 100 and the λmax [3] was 442 nm. For the same compound, the “Relative intensity 230° C., 30 min” value [3] was 99.9.

With `CCN(CC)c1ccc(/C=C(\C#N)C(=O)NCCCCCCNC(=O)/C(C#N)=C/c2ccc(N(CC)CC)cc2)cc1` [Compound No. 7] the 10% weight loss [1] was 352 °C, the “Solubility (PGMEA)” value (Solubility in PGMEA) was 0.2 wt % and the λmax [2] was 432 nm. The ε [2] was 99600.

With `CCN(CC)c1ccc(/C=C(\C#N)C(=O)OCC(COC(=O)/C(C#N)=C/c2ccc(N(CC)CC)cc2)(COC(=O)/C(C#N)=C/c2ccc(N(CC)CC)cc2)COC(=O)/C(C#N)=C/c2ccc(N(CC)CC)cc2)cc1` [Compound No. 16] the 10% weight loss [1] was 328 °C, the “Solubility (PGMEA)” value (Solubility in PGMEA) was 1.8 wt % and the λmax [2] was 439 nm. The ε [2] was 210000, the “Relative intensity After exposure” value [3] was 100 and the λmax [3] was 438 nm. For the same compound, the “Relative intensity 230° C., 30 min” value [3] was 99.7.

In the case of `CCN(CC)c1ccc(/C=C(\C#N)C(=O)Oc2ccc(-c3nc(-c4ccc(OC(=O)/C(C#N)=C/c5ccc(N(CC)CC)cc5)cc4)nc(-c4ccc(OC(=O)/C(C#N)=C/c5ccc(N(CC)CC)cc5)cc4)n3)cc2)cc1` [Compound No. 26], the 10% weight loss [1] is reported as 321 °C, the “Solubility (PGMEA)” value (Solubility in PGMEA) is reported as 1.0 or less wt % and the λmax [2] is reported as 447 nm. It also gave a ε [2] of 210000.

With `CC(COC(=O)/C(C#N)=C/c1ccc(N2CCOCC2)cc1)OC(=O)/C(C#N)=C/c1ccc(N2CCOCC2)cc1` (centres unmarked) [Compound No. 43] the 10% weight loss [1] was 318 °C, the “Solubility (PGMEA)” value (Solubility in PGMEA) was 1.0 or less wt % and the λmax [2] was 408 nm. For the same compound, the ε [2] was 62800.

For `CCN(CC)c1ccc(/C=C(\C#N)C(=O)Oc2ccc(C3(c4ccc(OC(=O)/C(C#N)=C/c5ccc(N(CC)CC)cc5)cc4)CCCCC3)cc2)cc1` [Compound No. 52], the 10% weight loss [1] was 322 °C, the “Solubility (PGMEA)” value (Solubility in PGMEA) was 0.6 wt % and the λmax [2] was 441 nm. It also gave a ε [2] of 121000.

In the case of `CCN(CC)c1ccc(/C=C(\C#N)C(=O)NCC(C)NC(=O)/C(C#N)=C/c2ccc(N(CC)CC)cc2)cc1` (centres unmarked) [Compound No. 54], the 10% weight loss [1] is reported as 354 °C, the “Solubility (PGMEA)” value (Solubility in PGMEA) is reported as 1.0 or less wt % and the λmax [2] is reported as 428 nm. The ε [2] was 90500.

In the case of `CC(COC(=O)/C(C#N)=C/c1ccc(N(C)C)cc1)OC(=O)/C(C#N)=C/c1ccc(N(C)C)cc1` (centres unmarked) [Compound No. 55], the 10% weight loss [1] is reported as 323 °C, the “Solubility (PGMEA)” value (Solubility in PGMEA) is reported as 1.0 or less wt % and the λmax [2] is reported as 427 nm. For the same compound, the ε [2] was 84600.

For `CCN(CC)c1ccc(/C=C(\C#N)C(=O)OCC(C)(COC(=O)/C(C#N)=C/c2ccc(N(CC)CC)cc2)COC(=O)/C(C#N)=C/c2ccc(N(CC)CC)cc2)cc1` [Compound No. 56], the 10% weight loss [1] was 334 °C, the “Solubility (PGMEA)” value (Solubility in PGMEA) was 5.6 wt % and the λmax [2] was 436 nm. The ε [2] was 160000, the “Relative intensity After exposure” value [3] was 100 and the λmax [3] was 430 nm. For the same compound, the “Relative intensity 230° C., 30 min” value [3] was 99.9.

In the case of `CCN(CCC#N)c1ccc(/C=C(\C#N)C(=O)OCCCCCCOC(=O)/C(C#N)=C/c2ccc(N(CC)CCC#N)cc2)cc1` [Compound No. 58], the 10% weight loss [1] is reported as 351 °C, the “Solubility (PGMEA)” value (Solubility in PGMEA) is reported as 1.0 or less wt % and the λmax [2] is reported as 420 nm. The ε [2] was 80500.

With `CN(C)c1ccc(/C=C(\C#N)C(=O)OCCCCCCCCCCOC(=O)/C(C#N)=C/c2ccc(N(C)C)cc2)cc1` [Compound No. 61] the 10% weight loss [1] was 350 °C, the “Solubility (PGMEA)” value (Solubility in PGMEA) was 1.0 or less wt % and the λmax [2] was 423 nm. The ε [2] was 90800.

For `CC(=O)OCCN(CCOC(C)=O)c1ccc(/C=C(\C#N)C(=O)OCCCCCCCOC(=O)/C(C#N)=C/c2ccc(N(CCOC(C)=O)CCOC(C)=O)cc2)cc1` [Compound No. 62], the 10% weight loss [1] was 366 °C, the “Solubility (PGMEA)” value (Solubility in PGMEA) was 1.0 or less wt % and the λmax [2] was 409 nm. It also gave a ε [2] of 89900.

For `CCCCN(CCCC)c1ccc(/C=C(\C#N)C(=O)Oc2ccc(C(c3ccc(OC(=O)/C(C#N)=C/c4ccc(N(CCCC)CCCC)cc4)cc3)(C(F)(F)F)C(F)(F)F)cc2)cc1` [Compound No. 69], the 10% weight loss [1] was 336 °C, the “Solubility (PGMEA)” value (Solubility in PGMEA) was 1.0 or less wt % and the λmax [2] was 448 nm. It also gave a ε [2] of 107000.

In the case of `CCCCN(CCCC)c1ccc(/C=C(\C#N)C(=O)Oc2ccc(S(=O)(=O)c3ccc(OC(=O)/C(C#N)=C/c4ccc(N(CCCC)CCCC)cc4)cc3)cc2)cc1` [Compound No. 70], the 10% weight loss [1] is reported as 324 °C, the “Solubility (PGMEA)” value (Solubility in PGMEA) is reported as 1.0 or less wt % and the λmax [2] is reported as 453 nm. It also gave a ε [2] of 135000.

For `CCCCN(CCCC)c1ccc(/C=C(\C#N)C(=O)OCC(C)(COC(=O)/C(C#N)=C/c2ccc(N(CCCC)CCCC)cc2)COC(=O)/C(C#N)=C/c2ccc(N(CCCC)CCCC)cc2)cc1` [Compound No. 102], the 10% weight loss [1] was 354 °C, the “Solubility (PGMEA)” value (Solubility in PGMEA) was 7.5 wt % and the λmax [2] was 440 nm. It also gave a ε [2] of 125000.
